Columns and labels:
advanced hepatic cancer = settings: clinical trials, advanced hepatic cancer (Non-Patent Document 1); cited from earlier work
[1] = test system: mouse hepatocellular cancer cell line Hep1-6 allograft; assay: Tumor growth assay in allograft mouse model (Hep1-6), Ad-REIC with Cisplatin; assay type: in vivo, C57BL/6 mice; settings: Ad-REIC 1.0×10^9 pfu intratumorally Days 14, 16, Cisplatin 1 mg/kg intraperitoneally Days 14, 21, control PBS
From the text: C57BL/6 female mice (6- to 8-week-old) were purchased from Japan SLC Inc. and maintained with free access to feeds and water in the SPF environment in Okayama University animal experimentation facility. Mice were adapted to the breeding environment over a period of 1 week or longer before the experimentation was initiated. Mice were bred and treated under the strictly controlled conditions in accordance with the guidelines provided by the institutional animal control committee, Okayama University Medical School.
The mouse hepatocellular cancer cell line Hep1-6 ([…], suspended in 200 μl of PBS) were injected into the right flanks of the C57BL/6 mice (Day 0). When the tumor diameters reached 5 to 10 mm, administration of Ad-REIC and Cisplatin was initiated. Ad-REIC (1.0×10^9 pfu) was administered intratumorally on Days 14 and 16. Cisplatin (1 mg/kg) was administered intraperitoneally on Days 14 and 21. Tumor sizes were measured 2 times a week, and tumor volumes were determined.

Hep3B cells = assay: MTT cell viability assay, Hep3B; assay type: cell-based; settings: 72 hours
Description: (§1) The hepatic cancer cell lines Hep3B and Huh7 (hereafter, referred to as “Hep3B cells” and “Huh7 cells,” respectively, according to need) were purchased from the Japanese Cancer Resources Bank (Tokyo, Japan). The cells were maintained in Dulbecco's Modified Eagle's Medium supplemented with 10% FBS, 1% non-essential amino acid, 1% penicillin/streptomycin, and amphotericin B (0.5 μg/ml). The cells were cultured in accordance with a conventional technique in a humidified 5% CO2 incubator at 37° C. When the cells reached subconfluency, they were pretreated in a medium containing 0.1% dialyzed FBS for 24 hours before experimentation and then subjected to experimentation. […]
(§2) The hepatic cancer cell lines Hep3B and Huh7 were cultured in the presence or absence of Ad-LacZ or Ad-REIC for 72 hours. Cell viability was evaluated via MTT assays. […] Mitochondrial activity reflecting cell viability was evaluated by measuring the absorbance at 570 nm using a microplate reader. […]
(§3) Hep3B cells and Huh7 cells were cultured in the presence or absence of Cisplatin (1 μg/ml) for 72 hours and in the presence or absence of Ad-Lac Z (MOI of 50) or Ad-REIC (MOI of 50). Cell viability was evaluated by the MTT assays described above. […]

Huh7 cells = assay: MTT cell viability assay, Huh7; assay type: cell-based; settings: 72 hours
Description: as §1, §2, §3

[2] = test system: JNK signal transmission pathway (p-ASK1, p-IRE1α, p-JNK, p-c-Jun) in Huh7 cells; assay: Immunoblot analysis of the JNK signal transmission pathway; assay type: cell-based; settings: Huh7, lysates 48 hours after transfection, regardless of the presence or absence of Ad-REIC (MOI of 10)
Description: The mechanism of Ad-REIC for apoptosis induction was examined. By performing immunoblotting, activation of signal transmission molecules in the JNK signal transmission pathway by Ad-REIC and Cisplatin was evaluated. Ad-LacZ and Ad-REIC at MOI of 10 each were transfected into the Hep3B cells and the Huh7 cells, and cell lysates were collected 48 hours thereafter. Protein expression of phospho-ASK1 (p-ASK1), phospho-IRE1α (p-IRE1α), phospho-JNK (p-JNK), and phospho-c-Jun (p-c-Jun) β-actin was analyzed via immunoblotting using specific antibodies. Immunoblotting of β-actin was performed to examine equal loading of proteins in the cells.

Compound | medial survival period (advanced hepatic cancer) [months] | anti-tumor effects (tumor volume) [1] | cell viability of Hep3B cells, dependence on amount of Cisplatin (Hep3B cells) | cell viability of Huh7 cells, dependence on amount of Cisplatin (Huh7 cells) | expression of p-ASK1, p-IRE1α, p-JNK and p-c-Jun (immunoblotting) [2]
CNC(=O)c1cc(Oc2ccc(NC(=O)Nc3ccc(Cl)c(C(F)(F)F)c3)cc2)ccn1 [Sorafenib] | 15.6 | – | – | – | –
N.N.[Cl][Pt][Cl] [Cisplatin] | – | the tumor volume was decreased, and anti-tumor effects were observed | decreased depending on the amount of Cisplatin administered | decreased depending on the amount of Cisplatin administered | each such expression was activated

From patent US20220280601A1, “METHOD FOR TREATMENT OF HEPATIC CANCER USING REIC/Dkk-3 GENE IN COMBINATION WITH ANTI-TUMOR AGENT” (Momotaro-Gene Inc., priority 2019, published 2022)
